Assays:
Assay type in all cases: cell-based
HeLa cells = assay: CellTiter-Glo cell viability, HeLa cells; settings: Homo sapiens, HeLa
Protocol: The cell viability IC50 of each compound was determined using Promega CellTiter-Glo Luminescent Cell Viability Assay kit by measuring the total ATP levels to quantify the number of metabolically active cells upon drug treatment as described in Crouch et al., J Immunol Methods 1993, 160, (1), 81-8. Briefly, the compounds were suspended in DMSO at 10 mM and diluted in 384 plates (20 μl/well in DMSO) in triplicate by a 14-point titration (12 nM to 100 μM). 50 μl of HeLa cells or patient derived glioblastoma cells (HK-309) (2000 cells/well) were then treated with the prepared dilutions of the drugs (0.5 μl) and incubated at 37° C. and 5% CO2. 72 hours later 50 μl of CellTiter-Glo reagent was added to each well followed by a 2 minutes shaking and a 10-minute incubation to lyse the cells. The relative luminescent intensity units (RLU) of each well was measured using a Tecan M1000 microplate reader (Tecan Group Ltd.) with its green filter and 1 second integration time.
Cells used in Example 2 and other examples disclosed herein were cultured as follows: Adherent HeLa cells and patient derived glioblastoma cells were grown with 5% CO2 at 37° C. in F12:DMEM 50:50 medium (Invitrogen) containing 10% FBS and 1% penicillin/streptomycin. To obtain HeLa cells synchronized in mitosis, cycling cells were treated with 2 mM thymidine (Sigma-Aldrich) for eighteen hours, washed three times with PBS, and released into fresh media until they entered mitosis eight hours post-release. Patient-derived glioblastoma cells (HK-309) were collected and grown with approval from the UCLA Institutional Review Board. HK-309 was derived from a recurrent glioblastoma taken from a person. The cells were initially propagated as cancer stem cell-containing spheres in serum-free medium containing basic fibroblast growth factor and epidermal growth factor (Preprotech) as described previously by Visnyei et al., Mol Cancer Ther 2011, 10, (10), 1818-28.
For mitotic arrest IC50s, cells were treated with a twenty-point-2-fold-titration (190 pM to 10 μM) of each compound tested for 20 hours. For cell viability IC50s, cells were treated with a fourteen-point-2-fold-titration (12.2 nM to 100 μM). Mitotic arrest IC50 was determined by measuring the percent G2/M arrest using the Vybrant DyeCycle Green (Invitrogen) assay described above. Cell viability IC50 was determined using the CellTiter-Glo Assay (Promega), which measures total ATP levels. Plates were read with a Tecan M1000 micro-plate reader at 540 nm. The CDD software was used for generating IC50 and IC90 values.

M368 = assay: CellTiter-Glo cell viability, M368
Protocol: (§1) To determine if MI-181 had broad anti-cancer activity, we treated a diverse panel of cancer cell lines including cervical adenocarcinoma (HeLa), breast adenocarcinoma (MCF7), melanoma (M233), osteosarcoma (U205), acute lymphoblastic leukemia (CCRF-CEM), non-small cell lung carcinoma (NCI-H460), and breast adenocarcinoma (MCF7) with MI-181 and determined its cell viability IC50 (FIGS. 13A and 13B). […] Therefore, the efficacy of MI-181 was analyzed in a panel of melanoma cell lines with defined genetic backgrounds including BRAF^V600E and NRAS^Q61L mutations and varied sensitivities to Vemurafenib (BRAF inhibitor) and Trametinib (MEK inhibitor), which are currently used to treat BRAF^V600E melanomas^43,44 (FIG. 10c). […] As a general trend BRAF^V600E cell lines were slightly more sensitive than NRAS^Q61L cell lines and MI-181 was effective in Vemurafenib and Trametinib resistant cell lines (FIG. 10c and Table 3). Finally, we tested the ability of MI-181 to inhibit melanoma colony formation using the M233 and M308 cell lines (both resistant to Vemurafenib). Indeed, MI-181 was a potent inhibitor of colony formation (percentage colony formation for 10 nM MI-181=0.2±0.1 and 0.8±0.7; for 10 nM colchicine=0.1±0.06 and 1.5±0.5; and for 10 nM Vemurafenib=94±7 and 102±5) (FIG. 10d). Thus, MI-181 is a potent inhibitor of melanoma cell lines. […]

M395 = assay: CellTiter-Glo cell viability, M395
Protocol: as §1

[1] = test system: panel of melanoma cell lines; assay: Cell viability in a panel of melanoma cell lines; settings: melanoma cell lines incl. BRAF V600E and NRAS Q61L mutations; read-out: IC50 across melanoma panel
Protocol: as §1

[2] = test system: breast adenocarcinoma (MCF7); assay: Cell viability, MCF7; settings: Homo sapiens; MCF7 cells
Protocol: as §1

cells = assay: Immunoblot analysis of synchronized cells and drug washout (mitotic arrest reversibility)
Protocol: Phospho-histone-H3-488 (Ser10) (p-H3-488, Cell Signaling), α-tubulin (Serotec), AurKB (BD Transduction), Anti-Centromere-Antibodies (ACA, Cortex Biochem), cyclin A and B (Santa Cruz Biotechnology), and SECURIN (Gene Tex). BubR1 and Bub1 were from Hongtao Yu. FITC-, Cy3- and Cy5-conjugated secondary antibodies were from Jackson Immuno Research.
Cells were synchronized in G1/S, released into the cell cycle in the presence of DMSO or MI-181, and cell extracts were prepared at several time points post-release. […] Additionally, the MI-182-induced mitotic arrest was reversible, as cells exited mitosis within 2 hours of drug washout (FIG. 9).

melanoma (M233) = assay: CellTiter-Glo cell viability, M233
Protocol: as §1

M318 = assay: CellTiter-Glo cell viability, M318
Protocol: as §1

IC50 (HeLa cells): 17.4 nM | IC50 [1]: 18 to 90 nM | IC50 [2]: 11000 nM | IC50 (melanoma (M233)): 24.4 nM
SMILES: Cc1cc2nc(/C=C/c3cccnc3)sc2cc1C [MI-181]
IC50 (M368): 42.1 nM | IC50 (M395): 23.4 nM | reversibility of induced mitotic arrest (cells; FIG. 9): reversible | cell cycle state by immunoblot (cells; cells synchronized in G1/S, released in presence of drug): arrested in mitosis (p-H3 positive), activated the SAC (BubR1 remained phosphorylated) and stabilized cyclin B while degrading cyclin A | time to exit mitosis after drug washout (cells; drug washout): ≤ 2 h | IC50 (M318): 54.9 nM

Reference: US10913750B2, “Tubulin-binding compounds, compositions and uses related thereto” (The Regents of the University of California, priority 2015, dated 2021)
